From patent US20100190755A1, “TETRACYCLINE COMPOUNDS FOR THE TREATMENT OF RHEUMATOID ARTHRITIS AND RELATED METHODS OF TREATMENT” (priority 2008, published 2010)
In brackets after ≈: the same amount, converted by molar mass.

Key:
[1] = test system: S. aureus RN450; test: Antibacterial activity MIC, Gram+ (Table 9); type: cell-based; settings: Staphylococcus aureus, CAMHB, 35° C., approximately 18 hr
Experimental: (§1) 2 mg of each compound is dissolved in 100 μl of DMSO. The solution is then added to cation-adjusted Mueller Hinton broth (CAMHB), which results in a final compound concentration of 200 μg per ml. The tetracycline compound solutions are diluted to 50 μL volumes, with a test compound concentration of 0.098 μg/ml. Optical density (OD) determinations are made from fresh log-phase broth cultures of the test strains. Dilutions are made to achieve a final cell density of 1×10^6 CFU/ml. At OD=1, cell densities for different genera should be approximately:
(§2) 50 μl of the cell suspensions are added to each well of microtiter plates. The final cell density should be approximately 5×10^5 CFU/ml. These plates are incubated at 35° C. in an ambient air incubator for approximately 18 hr. The plates are read with a microplate reader and are visually inspected when necessary. The MIC is defined as the lowest concentration of the tetracycline compound that inhibits growth.

[2] = test system: E. coli 25922; test: Antibacterial activity MIC, Gram- (Table 9); type: cell-based; settings: Escherichia coli, CAMHB, 35° C., approximately 18 hr
Experimental: as §1, §2

[3] = test system: collagen-induced arthritis (CIA) in male DBA/1 mice; test: CIA model, Example 3 (cumulative scores vs untreated controls); type: in vivo; settings: Mus musculus
Experimental: The CIA model data were acquired according to the following protocol: • 1. Male DBA/1 mice were anaesthetized by i.p. injection of ketamine/xylazine (1.25 mg/ml:0.25 mg/ml, 100 μl/mouse). • 2. Anaesthetized mice were immunized intradermally at the base of the tail with 0.1 or 0.2 ml of an emulsion composed of 100 or 200 μg bovine type II collagen in Complete Freund's Adjuvant (50 μl/spot x 2 or 4 spots). • 3. At day 21 after the immunization, mice received an intradermal boost of 100 μl of an emulsion composed of 100 μg bovine type II collagen in Incomplete Freund's Adjuvant (50 μl/spot x 2 spots) • 4. After onset of disease symptoms (usually 3-4 days after boost), tetracycline derivatives were administered daily into mice via intraperitoneal or oral routes for 8 to 15 days. Methotrexate (12 mg/kg/day) or dexmethasone (4 mg/kg/day) was used as a control for inflammation suppression. • 5. The disease severity was scored daily for 8-15 days after the appearance of the symptoms. Disease severity was graded as following: • a. Visual clinical score for the presence of inflammation in the fingers/toes of the forepaws and hindpaws: • 1. Erythema and mild swelling confined to the mid-foot (tarsals) or ankle joint • 2. Erythema and mild swelling extending from the ankle to the mid-foot • 3. Erythema and moderate swelling extending from the ankle to the metatarsal joints • 4. Erythema and severe swelling encompassing the ankle, foot, and digits. • b. Clinical swelling score for the presence of paw edema in the forepaws and hindpaws: • Paw thickness was measured daily by an engineering micrometer after isofluorane inhalation or ketamine/xylazine (1.25 mg/ml:0.25 mg/ml, 100 μl/mouse) i.p. injection.
Daily scores and paw swelling measurements for each treatment group of mice were added over the total observation period to obtain a cumulative score. Cumulative scores were compared between untreated controls and treated groups to determine tetracycline-induced inhibition.

| Compound | MIC [1] | MIC [2] | inhibition in vivo at 12 mg/kg ([3]; Dose 12 mg/kg) | inhibition in vivo at 25 mg/kg [3] |
| --- | --- | --- | --- | --- |
| CC(=O)c1cc(N(C)C)c2c(c1O)C(=O)C1=C(O)[C@]3(O)C(=O)C(C(N)=O)=C(O)C[C@@H]3C[C@@H]1C2 [Compound T] | 4 µg/mL (≈ 8.76 µM) | > 64 µg/mL | 10% | 44% |
| CO/N=C(\C)c1cc(N(C)C)c2c(c1O)C(=O)C1=C(O)[C@]3(O)C(=O)C(C(N)=O)=C(O)[C@@H](N(C)C)[C@@H]3C[C@@H]1C2 [K] | 4 µg/mL (≈ 7.57 µM) | > 64 µg/mL | – | 30% |
| CN(C)c1cc(-c2ncco2)c(O)c2c1C[C@H]1C[C@H]3[C@H](N(C)C)C(O)=C(C(N)=O)C(=O)[C@@]3(O)C(O)=C1C2=O [O] | 32 µg/mL (≈ 61 µM) | > 64 µg/mL | – | 26% |
| CN(C)c1ccc(-c2cc(N(C)C)c3c(c2O)C(=O)C2=C(O)[C@]4(O)C(=O)C(C(N)=O)=C(O)[C@@H](N(C)C)[C@@H]4C[C@@H]2C3)cc1 [R] | 2 µg/mL (≈ 3.47 µM) | > 64 µg/mL | – | 32% |
| CN(C)c1cc(-c2ccc(C(N)=O)cc2)c(O)c2c1C[C@H]1C[C@H]3[C@H](N(C)C)C(O)=C(C(N)=O)C(=O)[C@@]3(O)C(O)=C1C2=O [S] | > 64 µg/mL | > 64 µg/mL | – | 46% |
| CN(C)c1cc(C(=O)O)c(O)c2c1C[C@H]1C[C@H]3CC(O)=C(C(N)=O)C(=O)[C@@]3(O)C(O)=C1C2=O [U] | > 64 µg/mL | > 64 µg/mL | – | 50% |
| CCCNC(=O)c1cc(N(C)C)c2c(c1O)C(=O)C1=C(O)[C@]3(O)C(=O)C(C(N)=O)=C(O)C[C@@H]3C[C@@H]1C2 [V] | 2 µg/mL (≈ 4 µM) | > 64 µg/mL | – | 43% |
| CN(C)c1cc(-c2ncco2)c(O)c2c1C[C@H]1C[C@H]3CC(O)=C(C(N)=O)C(=O)[C@@]3(O)C(O)=C1C2=O [X] | 2 µg/mL (≈ 4.15 µM) | > 64 µg/mL | – | 40% |
| CN(C)c1cc(C(=O)N2CCCCC2)c(O)c2c1C[C@H]1C[C@H]3CC(O)=C(C(N)=O)C(=O)[C@@]3(O)C(O)=C1C2=O [Y] | > 64 µg/mL | > 64 µg/mL | – | 22% |
| CCO/N=C(\C)c1cc(N(C)C)c2c(c1O)C(=O)C1=C(O)[C@]3(O)C(=O)C(C(N)=O)=C(O)[C@@H](N(C)C)[C@@H]3C[C@@H]1C2 [Z] | 4 µg/mL (≈ 7.37 µM) | > 64 µg/mL | – | 32% |

More lines, main results first:

| MIC [1] | MIC [2] | Compound | inhibition in vivo at 12 mg/kg ([3]; Dose 12 mg/kg) | inhibition in vivo at 25 mg/kg [3] |
| --- | --- | --- | --- | --- |
| 2 µg/mL (≈ 4 µM) | > 64 µg/mL | CCCc1cc(N(C)C)c2c(c1O)C(=O)C1=C(O)[C@]3(O)C(=O)C(C(N)=O)=C(O)[C@@H](N(C)C)[C@@H]3C[C@@H]1C2 [E] | – | 44% |
| 0.5 µg/mL (≈ 1.06 µM) | 16 µg/mL (≈ 33.9 µM) | CCc1ccc2c(c1O)C(=O)C1=C(O)[C@]3(O)C(=O)C(C(N)=O)=C(O)[C@@H](N(C)C)[C@@H]3[C@@H](O)[C@@H]1[C@H]2C [G] | – | 55% |
| 0.5 µg/mL (≈ 1.03 µM) | > 64 µg/mL | CCc1cc(N(C)C)c2c(c1O)C(=O)C1=C(O)[C@]3(O)C(=O)C(C(N)=O)=C(O)[C@@H](N(C)C)[C@@H]3C[C@@H]1C2 [H] | – | 41% |
| 2 µg/mL (≈ 4.04 µM) | 64 µg/mL (≈ 129 µM) | CN(C)[C@@H]1C(O)=C(C(N)=O)C(=O)[C@@]2(O)C(O)=C3C(=O)c4c(O)ccc(C5=CCNCC5)c4C[C@H]3C[C@@H]12 [L] | – | 48% |
| 0.06 µg/mL (≈ 0.118 µM) | 0.5 µg/mL (≈ 0.987 µM) | CN(C)[C@@H]1C(O)=C(C(N)=O)C(=O)[C@@]2(O)C(O)=C3C(=O)c4c(O)ccc(-c5ccc(O)cc5)c4C[C@H]3C[C@@H]12 [N] | – | 21% |
| 0.5 µg/mL (≈ 0.927 µM) | > 64 µg/mL | CN(C)c1cc(-c2ccsc2)c(O)c2c1C[C@H]1C[C@H]3[C@H](N(C)C)C(O)=C(C(N)=O)C(=O)[C@@]3(O)C(O)=C1C2=O [P] | – | 34% |
| 0.5 µg/mL (≈ 1.25 µM) | 32 µg/mL (≈ 80.3 µM) | CN(C)[C@@H]1C(O)=C(C(N)=O)C(=O)[C@@]2(O)C(O)=C3C(=O)c4ccccc4C[C@H]3C[C@@H]12 [Q] | – | 28% |
